Test results taken from patent US20240368605A1, “USE OF SPLICE SWITCHING OLIGONUCLEOTIDES FOR EXON SKIPPING-MEDIATED KNOCKDOWN OF PIM2” (INSTITUT NATIONAL DE LA SANTÉ ET DE LA RECHERCHE MÉDICALE, priority 2021, published 2024).

Legend:
Assay type in all cases: cell-based, human
PIM1 = PIM1 expression after SSO-PIM2 treatment; settings: 2 μM
plasmablasts (PB) = test: Generation of plasmablasts at D6 in the in vitro B cell differentiation model (flow cytometry); settings: SSO at 2 μM added at D4
Description: FIG. 1. Specific PIM2 inhibition affects the generation of plasmablasts • A. Diagram explaining SSO-PIM2 action. It binds to the second exon of the gene PIM2 leading in a skip of this exon during transcription and finally results to a frame shift and created an early stop-codon during translation. The protein is so a non-functional truncated protein. • B. Activated B cells were treated at D4 with an increasing dose of SSO-PIM2 and SSO-CTL (control condition) and recovered 48 hours later (at D6). PIM2 mRNA residual expression compared to the control condition adjust at 100% (mean±SD, n=3) and agarose gel of PIM2 PCR, showing exon skipping. • C. At D4, activated B cells were treated with SSO-PIM2 and SSO-CTL (control condition) at 2 μM. CD23+ aBC and PB were sorted at D6. PIM2 mRNA relative expression (mean±SD, n=4) (left) and PIM2 protein expression by western blot (middle) and immunofluorescence (right) after PIM2 inhibition. • D-E. Decrease of PB generation after PIM2 inhibition. Cells were treated with SSO-PIM2 at 2 μM (D) or increase dose of the PIM inhibitor AZD1208 (PIMi as indicated, in μM) (E) and their control condition (SSO-CTL and DMSO respectively). The untreated condition is referred as “NT” (=no treatment). Left: Absolute number of PB obtained at D6 after PIM2 inhibition. […] Right: Proportion of PB evaluated at D6 by flow cytometry after treatment with SSO-PIM2 at 2 μM. […]

PBs = test: Mitochondria/Caspase 3-driven apoptosis and viability of PBs; settings: PBs
Excerpt: Mitochondrial-driven cell death is activated once the mitochondria lose the ability to maintain the inner membrane potential, resulting in the release of proapoptotic proteins into the cytosol. Commitment towards PBs is sustained by an extensive reconfiguration of the epigenetic landscape and of gene expression patterns, both showing that the most prominent function involves cell death and survival (Caron et al., 2015). […] We then investigated the different cell subsets generated through the differentiation model at the protein level for factors involved in apoptosis triggered by mitochondria (data not shown). The PBs compared to all other subsets increased the expression of pBAD and XIAP, both proteins counteract the apoptotic pathway and were described in PIM2-induced survival effect (data not shown) (Fox, 2003; Macdonald et al., 2006; Yan et al., 2003). In accordance with this finding and despite a strong increase in procaspase 3 protein (32 kDa size), PBs decrease the autocatalytic activity of Caspase 3 and therefore the production of p19/p17 apoptosis executors as highlighted by the low levels of cleaved PARP (data not shown) (Ponder and Boise, 2019). […] In addition, we found in P2/CD23+ cells a complete degradation of PARP which illustrate the fact that the apoptosis process is consubstantially associated with the B cell terminal differentiation if cells are not otherwise protected (data not shown).
We then inhibited PIM2 which led to an intense activation of Caspase 3 and a decrease of viability of PBs. The latter was rescued by the Caspase 3 inhibitor Q-DEVD-OPH (data not shown).
The differentiation of immature monocytes is associated with a relocalization of nuclear p21^Cip1/WAF1 to the cytoplasm where the protein participates to apoptosis blockage (Asada, 1999). In addition, Suzuki et al. ascribed the formation of a Procaspase 3/p21^Cip1/WAF1 complex in the context of resistance to Fas-mediated cell death owing to the phosphorylation of p21 by protein kinase A (Suzuki et al., 2000). We wanted therefore to explore whether p21^Cip1/WAF1 may bind Procaspase 3 and developed to this end a FRET approach which detected a signal of energy transfer compatible with such physical interaction. […] We then confirmed the binding between p21^Cip1/WAF1 and Caspase 3 in XG21 cells and in PBs by IP (data not shown). Finally, to confirm the anti-apoptotic role of cytoplasmic p21^Cip1/WAF1 in PBs we inhibited p21^Cip1/WAF1 expression by a siRNA targeting CDKN1A in in vitro D4 B cells (data not shown) and found an activation of the execution of apoptosis characterized by the detection of the p17-fragment cleavage of caspase 3 in parallel to the cleavage of PARP (data not shown) and similar results were found in XG21 cells (data not shown). […] The role of PIM2 is to stabilize p21^Cip1/WAF1 protein in the cytoplasm allowing therefore the formation a multiprotein complex which inhibits Caspase 3 full activation (data not shown).

“5′-CCTCATGACGGATACCTGGAGTC-3′ (all phosphorodiamidate morpholino (PMO)) [SSO-PIM2]” was tested, and the “effect on PIM1 expression” value (PIM1) was “without affecting PIM1 expression”, the “generated PB at D6” value (plasmablasts (PB)) was “severe decrease in generated PB” and the “cleaved PARP protein” value (PBs) was “production of cleaved PARP protein”. For the same substance, the mitochondrial depolarization (PBs) was “strong mitochondrial depolarization” and the “pBAD and XIAP protein” value (PBs) was “decrease of pBAD and XIAP”.
